Numbered stars: 1 amine (or outer) side, 2 acyl side, 3 side chain; on linkers, the order of the positions; unused ones are H or OH. Square brackets hold non-standard residues; d marks the D form. Peptide text beside a SMILES is read from it. * marks the point of attachment. 5FAM = O=C1OC2(c3ccc(O)cc3Oc3cc(O)ccc32)c2ccc(C(=O)*)cc21; NHCH2C6H4(4-CH2CONH2) = NC(=O)Cc1ccc(CN*)cc1; X1 = O=C(Cc1ccc(CN[*:1])cc1)[*:2]
How the values were obtained:
ASGPR = target: T1, ASGPR (Homo sapiens, UniProt P07306); assay: MST binding affinity of resynthesized NNP hits to ASGPR; details: read-out: KD (nM) [95% conf. int]; MST; NNP1 library hit; target ASGPR; one-site binding model
T1 construct: purchased R&D Systems, Inc. 4394-AS
T1 sequence (P07306 1-291): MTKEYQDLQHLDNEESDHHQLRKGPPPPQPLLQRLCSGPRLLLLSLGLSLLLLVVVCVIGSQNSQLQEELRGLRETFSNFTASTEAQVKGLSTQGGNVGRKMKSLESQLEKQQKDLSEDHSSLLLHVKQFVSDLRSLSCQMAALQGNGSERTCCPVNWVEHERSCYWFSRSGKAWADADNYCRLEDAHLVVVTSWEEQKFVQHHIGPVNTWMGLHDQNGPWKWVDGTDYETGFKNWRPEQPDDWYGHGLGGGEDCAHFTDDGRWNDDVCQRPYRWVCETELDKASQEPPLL
Description: (§1) Hit binding affinity to various targets were determined using Microscale Thermophoresis (MST). MST experiments were performed on a Monolith NT.115pico (NanoTemper Technologies GmbH, Munich, Germany). Measurements were performed at room temperature, in triplicate with incubation periods of 15, 30 and 45 minutes. […] Targets were labeled using Nanotemper Monolith 2nd Generation Protein Labeling Kits. RED-MALEIMIDE (Maleimide-647-dye) labeling kit was used for K-Ras and RED-NHS (NHS-647-dye) labeling kit was used for IL-6, IL-6R, TNFα and ASGPR. The buffer for the ASGPR contained 20 mM HEPES pH 7.4, 150 mM NaCl, 10 mM MgCl2, 2 mM CaCl2, 0.05% Pluronic F-127, and 1 mM DTT; for IL-6 contained 20 mM HEPES pH 7.4, 150 mM KCl, 10 mM MgCl2, and 0.1% Pluronic F-127; for the soluble IL-6 receptor 20 mM HEPES pH 7.4, 150 mM NaCl, 10 mM MgCl2, and 0.05% Tween-20; for K-Ras 20 mM HEPES pH 7.4, 150 mM NaCl, 10 mM MgCl2, 0.05% Tween-20 and 1 mM DTT; for TNFα 10 mM HEPES pH 7.4, 150 mM NaCl, 10 mM MgCl2, 0.05% Polysorbate-20. Triplicate data was analyzed using MO.AffinityAnalysis software (NanoTemper Technologies GmbH).

IL-6R = target: T2, IL-6R (Homo sapiens, UniProt P08887); assay: MST binding affinity of resynthesized NNP hits to IL-6R; details: read-out: MST (microscale thermophoresis) KD (nM) [95% conf. int]; IL-6R; ester versus amide amino acid-PAM bond polymers, library NNP2
T2 construct: purchased Creative Biomart IL6R-584H
T2 sequence (P08887 20-355 limits assumed): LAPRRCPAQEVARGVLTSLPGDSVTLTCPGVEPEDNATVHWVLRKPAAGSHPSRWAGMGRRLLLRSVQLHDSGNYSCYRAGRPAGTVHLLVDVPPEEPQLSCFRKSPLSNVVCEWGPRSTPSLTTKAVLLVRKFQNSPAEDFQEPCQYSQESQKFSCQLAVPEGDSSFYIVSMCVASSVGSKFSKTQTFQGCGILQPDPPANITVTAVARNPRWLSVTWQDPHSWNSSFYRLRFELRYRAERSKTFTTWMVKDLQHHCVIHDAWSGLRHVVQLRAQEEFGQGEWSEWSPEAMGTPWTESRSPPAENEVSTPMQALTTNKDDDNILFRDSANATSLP
Description: as §1

Row | SMILES | Kd (ASGPR) [nM] | Kd (IL-6R) [nM]
1 | CC(C)C[C@H](NC(=O)[C@@H](CCCNC(=N)N)NC(=O)[C@@H](CCCCN)NC(=O)[C@@H](CCC(=O)O)NC(=O)[C@@H](Cc1ccccc1)NC(=O)Cc1ccc(CNC(=O)[C@H](Cc2ccccc2)NC(=O)[C@@H](CO)NC(=O)[C@@H](CCC(=O)O)NC(=O)[C@H]2CCCN2C(=O)[C@@H](CC(C)C)NC(=O)c2ccc3c(c2)C(=O)OC32c3ccc(O)cc3Oc3cc(O)ccc32)cc1)C(=O)NCc1ccc(CC(=O)NCC(=O)N2CCC[C@@H]2C(=O)N[C@H](CCCNC(=N)N)C(=O)N[C@H](CO)C(=O)N[C@@H](Cc2ccccc2)C(=O)NCc2ccc(CC(=O)N3CCC[C@@H]3C(=O)N[C@H](CCCCN)C(=O)N[C@H](Cc3ccc(O)cc3)C(=O)N[C@H](CCCNC(=N)N)C(=O)N[C@@H](Cc3ccccc3)C(=O)NCc3ccc(CC(=O)N[C@H](CCCNC(=N)N)C(=O)N[C@H](Cc4ccccc4)C(=O)N4CCC[C@@H]4C(=O)N[C@@H](C(=O)NCC(=O)NCc4ccc(CC(=O)N[C@H](CC(C)C)C(=O)N5CCC[C@@H]5C(=O)N[C@H](CCCNC(=N)N)C(=O)N[C@@H](C(=O)NCC(=O)NCc5ccc(CC(N)=O)cc5)[C@H](C)O)cc4)C(C)C)cc3)cc2)cc1 [ASGPR-9-3] (5FAM-[dL][dP][dE][dS]F[X1][dF][dE][dK][dR]L[X1]G[dP][dR][dS]F[X1][dP][dK][dY][dR]F[X1][dR][dF][dP][dV]G[X1][dL][dP][dR][dT]G-{NHCH2C6H4(4-CH2CONH2)}) | 330 | –
2 | CC(C)C[C@H](NC(=O)[C@@H](CCCNC(=N)N)NC(=O)[C@@H](CCCCN)NC(=O)[C@@H](CCC(=O)O)NC(=O)[C@@H](Cc1ccccc1)NC(=O)Cc1ccc(CNC(=O)[C@H](Cc2ccccc2)NC(=O)[C@@H](CO)NC(=O)[C@@H](CCC(=O)O)NC(=O)[C@H]2CCCN2C(=O)[C@@H](CC(C)C)NC(=O)c2ccc3c(c2)C(=O)OC32c3ccc(O)cc3Oc3cc(O)ccc32)cc1)C(=O)NCc1ccc(CC(=O)N[C@H](Cc2c[nH]cn2)C(=O)N[C@H](CO)C(=O)N2CCC[C@@H]2C(=O)N[C@H](CCCNC(=N)N)C(=O)N[C@H](C(=O)NCc2ccc(CC(=O)N3CCC[C@@H]3C(=O)N[C@H](CCCCN)C(=O)N[C@H](Cc3ccc(O)cc3)C(=O)N[C@H](CCCNC(=N)N)C(=O)N[C@@H](Cc3ccccc3)C(=O)NCc3ccc(CC(=O)N[C@H](CCCNC(=N)N)C(=O)N[C@H](Cc4ccccc4)C(=O)N4CCC[C@@H]4C(=O)N[C@@H](C(=O)NCC(=O)NCc4ccc(CC(=O)N[C@H](CC(C)C)C(=O)N5CCC[C@@H]5C(=O)N[C@H](CCCNC(=N)N)C(=O)N[C@@H](C(=O)NCC(=O)NCc5ccc(CC(N)=O)cc5)[C@H](C)O)cc4)C(C)C)cc3)cc2)C(C)C)cc1 [ASGPR-9-7] (5FAM-[dL][dP][dE][dS]F[X1][dF][dE][dK][dR]L[X1][dH][dS][dP][dR]V[X1][dP][dK][dY][dR]F[X1][dR][dF][dP][dV]G[X1][dL][dP][dR][dT]G-{NHCH2C6H4(4-CH2CONH2)}) | 150 | –
3 | CC(C)C[C@H](NC(=O)[C@@H](Cc1c[nH]cn1)NC(=O)[C@@H](CC(C)C)NC(=O)[C@H]1CCCN1C(=O)[C@@H](CC(N)=O)NC(=O)Cc1ccc(CNC(=O)[C@H](Cc2ccccc2)NC(=O)[C@@H](Cc2c[nH]cn2)NC(=O)[C@@H](CCCNC(=N)N)NC(=O)[C@@H](CC(N)=O)NC(=O)[C@@H](Cc2ccc(O)cc2)NC(=O)Cc2ccc(CNC(=O)[C@H](CC(C)C)NC(=O)[C@@H](CCCNC(=N)N)NC(=O)[C@@H](CCCCN)NC(=O)[C@@H](CCC(=O)O)NC(=O)[C@@H](Cc3ccccc3)NC(=O)Cc3ccc(CNC(=O)[C@H](Cc4ccccc4)NC(=O)[C@@H](CO)NC(=O)[C@@H](CCC(=O)O)NC(=O)[C@H]4CCCN4C(=O)[C@@H](CC(C)C)NC(=O)c4ccc5c(c4)C(=O)OC54c5ccc(O)cc5Oc5cc(O)ccc54)cc3)cc2)cc1)C(=O)NCc1ccc(CC(=O)N[C@H](CCCNC(=N)N)C(=O)N[C@H](Cc2ccccc2)C(=O)N2CCC[C@@H]2C(=O)N[C@@H](C(=O)NCC(=O)NCc2ccc(CC(=O)N[C@H](CC(C)C)C(=O)N3CCC[C@@H]3C(=O)N[C@H](CCCNC(=N)N)C(=O)N[C@@H](C(=O)NCC(=O)NCc3ccc(CC(N)=O)cc3)[C@H](C)O)cc2)C(C)C)cc1 [ASGPR-9-10] (5FAM-[dL][dP][dE][dS]F[X1][dF][dE][dK][dR]L[X1][dY][dN][dR][dH]F[X1][dN][dP][dL][dH]L[X1][dR][dF][dP][dV]G[X1][dL][dP][dR][dT]G-{NHCH2C6H4(4-CH2CONH2)}) | 97 | –
4 | CC(C)C[C@H](NC(=O)[C@@H](Cc1c[nH]c2ccccc12)NC(=O)[C@@H](CCC(=O)O)NC(=O)[C@@H](CO)NC(=O)[C@@H](CCCNC(=N)N)NC(=O)Cc1ccc(CNC(=O)[C@H](Cc2ccccc2)NC(=O)[C@@H](Cc2c[nH]cn2)NC(=O)[C@@H](CCCNC(=N)N)NC(=O)[C@@H](CC(N)=O)NC(=O)[C@@H](Cc2ccc(O)cc2)NC(=O)Cc2ccc(CNC(=O)[C@H](CC(C)C)NC(=O)[C@@H](CCCNC(=N)N)NC(=O)[C@@H](CCCCN)NC(=O)[C@@H](CCC(=O)O)NC(=O)[C@@H](Cc3ccccc3)NC(=O)Cc3ccc(CNC(=O)[C@H](Cc4ccccc4)NC(=O)[C@@H](CO)NC(=O)[C@@H](CCC(=O)O)NC(=O)[C@H]4CCCN4C(=O)[C@@H](CC(C)C)NC(=O)c4ccc5c(c4)C(=O)OC54c5ccc(O)cc5Oc5cc(O)ccc54)cc3)cc2)cc1)C(=O)NCc1ccc(CC(=O)N[C@H](CCCNC(=N)N)C(=O)N[C@H](Cc2ccccc2)C(=O)N2CCC[C@@H]2C(=O)N[C@@H](C(=O)NCC(=O)NCc2ccc(CC(=O)N[C@H](CC(C)C)C(=O)N3CCC[C@@H]3C(=O)N[C@H](CCCNC(=N)N)C(=O)N[C@@H](C(=O)NCC(=O)NCc3ccc(CC(N)=O)cc3)[C@H](C)O)cc2)C(C)C)cc1 [ASGPR-9-11] (5FAM-[dL][dP][dE][dS]F[X1][dF][dE][dK][dR]L[X1][dY][dN][dR][dH]F[X1][dR][dS][dE][dW]L[X1][dR][dF][dP][dV]G[X1][dL][dP][dR][dT]G-{NHCH2C6H4(4-CH2CONH2)}) | 0.22 | –
5 | CC(C)C[C@H](NC(=O)[C@@H](CCCNC(=N)N)NC(=O)[C@@H](C)NC(=O)Cc1ccc(COC(=O)[C@H](Cc2ccccc2)NC(=O)[C@@H](CCCNC(=N)N)NC(=O)[C@@H](CC(N)=O)NC(=O)Cc2ccc(COC(=O)[C@H](Cc3ccccc3)NC(=O)[C@@H](CCCCN)NC(=O)[C@@H](C)NC(=O)Cc3ccc(COC(=O)[C@H](CC(C)C)NC(=O)[C@@H](CCC(=O)O)NC(=O)[C@@H](CCCCN)NC(=O)Cc4ccc(COC(=O)[C@@H](NC(=O)[C@@H](CCC(=O)O)NC(=O)[C@@H](Cc5ccccc5)NC(=O)Cc5ccc(COC(=O)[C@H](CC(C)C)NC(=O)[C@@H](CCCNC(=N)N)NC(=O)[C@@H](CC(C)C)NC(=O)Cc6ccc(COC(=O)[C@H](Cc7ccccc7)NC(=O)[C@@H](Cc7c[nH]c8ccccc78)NC(=O)[C@@H](CCCNC(=N)N)NC(=O)c7ccc8c(c7)C(=O)OC87c8ccc(O)cc8Oc8cc(O)ccc87)cc6)cc5)C(C)C)cc4)cc3)cc2)cc1)C(=O)OCc1ccc(CC(=O)N[C@H](Cc2c[nH]c3ccccc23)C(=O)N[C@H](CCCCN)C(=O)N[C@@H](CC(C)C)C(=O)OCc2ccc(CC(=O)N[C@H](C)C(=O)N[C@@H](C(=O)N[C@@H](CC(C)C)C(=O)OCc3ccc(CC(N)=O)cc3)C(C)C)cc2)cc1 [IL6R-93-13] | – | 130

Source: US20230393140A1, “BINDING ASSAYS INVOLVING A PLURALITY OF SYNTHETIC COMPOUNDS, TARGETS, AND COUNTER TARGETS” (SRI International, priority 2020, published 2023)
